Assay [1] deals with peripheral (ω3) benzodiazepine (BZ) receptor (Rattus norvegicus, UniProt P16257). In words: BZω3 (peripheral-type) benzodiazepine receptor binding assay.
Method: Experiment 1: Central (ω1, ω2) and peripheral (ω3) benzodiazepine (BZ) receptor binding assays
BZω1 and BZω2 receptor binding assays were carried out according to the method of Stephens, D. N. et al. [cf.
Receptor membrane fractions for ω1, ω2 and ω3 were prepared from the cerebellum (ω1), spinal cord (ω1) or kidney (ω3) in 7-8 week old male rats of Wistar strain by the procedure described below.
After the cerebellum or spinal cord was homogenized with 20 volumes of ice-cold 50 mM Tris-citrate buffer (pH 7.1), the homogenate was centrifuged for 15 minutes at 40,000 g. The pellet obtained was washed 4 times by the same procedure, frozen and stored for 24 hours at -60° C. The resulting pellet, after being thawed, washed with the buffer and centrifuged, was suspended in the buffer I for the binding assay (50 mM Tris-HCl buffer containing 120 mM NaCl, 5 mM KCl, 2 mM CaCl2 and 1 mM MgCl2 ; pH 7.4) and the suspension thus obtained (containing 1 g wet tissue/40 ml) was used for the BZω1 and BZω2 receptor binding assays. On the other hand, the kidney was homogenized with 20 volumes of the ice-cold buffer II for the binding assay (50 mM Na--K phosphate buffer containing 100 mM NaCl; pH 7.4), filtered through 4 sheets of gauze, and centrifuged for 20 minutes at 40,000 g. The pellet obtained was suspended in the buffer II and the suspension (containing 1 g wet tissue/100 ml) was used for the binding assay as BZω3 receptor membrane source.
Flumazenil (final concentration: 0.3 nM for (ω1 and 1 nM for ω2) and flunitrazepam (final concentration: 10 μM) were used for the BZω1 or BZω2 receptor binding assays as the isotope-labeled and unlabeled ligands, respectively. For the BZω3 receptor binding assay, [^3 H] 4'-chlorodiazepam (7-chloro-1,3-dihydro-1-methyl-5-(4-chlorophenyl)-2H-1,4-benzodiazepin-2-one) (final concentration: 0.5 nM) and diazepam (final concentration: 100 μM) were used as the isotope-labeled and unlabeled ligands, respectively. Incubation was performed for 30 minutes at 37° C. in the BZω1 or BZω2 receptor binding assays, and for 150 minutes at 0° C. in the BZω3 receptor binding assay. The BZω1 or BZω2 receptor binding assays were carried out in the presence of bicuculline (final concentration: 100 μM).
The binding assay was performed by the following procedure. After adding each test compound at certain known concentrations, a [^3 H] ligand and the buffer I or II to each test tube, each assay was started by addition of membrane preparation (total volume of 1 ml). After incubation, the assay was terminated by filtration with suction through a Whatman GF/B glass fiber filter using a cell harvester (Brandel, USA). The filters were rapidly washed 3 times with 5 ml of ice-cold 50 mM Tris-HCl buffer (pH 7.7) for ω1 and ω2, or the buffer II forω3, and transferred to scintillation vials containing 10 ml liquid scintillation cocktail (ACS-II, Amersham, USA). After a few hours, retained radioactivity was counted by a liquid scintillation spectrometer. Specific binding of [^3 H] ligands was calculated as the difference between amounts of radioactivity bound in the presence and absence of excess unlabeled ligands.
Assay [2] is described as follows: Isoniazid-induced clonic convulsion test (anti-convulsant effect). In kind it is in vivo, mouse (Std-ddY, male). The conditions noted are these: Mus musculus, 0.5 h; oral, 30 min before isoniazid 200 mg/kg s.c.; mice; read-out: Anti-isoniazid effect ED25 (dose which prolonged the onset time of clonic convulsion by 25%). From the text: Experiment 3: Isoniazid-induced clonic convulsion test (anti-convulsant effect)
Isoniazid inhibits glutamate decarboxylase which catalyzes GABA synthesis, deases brain GABA levels, and induces clonic convulsion. According to the method of Auta, J. et al. [cf. J. Pharmacol. Exp. Ther. 265, 649-656 (1993)] with slight modification, we examined antagonistic effect of the test compounds on isoniazid-induced clonic convulsion. […] Those are BZ anxiolytics represented by diazepam, neurosteroids such as allopregnanolone, allotetrahydrodeoxycortico-sterone(THDOC) and BZω3 receptor agonists which enhance the synthesis of neurosteroids.
Male mice of Std-ddY strain weighing 22-24 g were used in a group of 6. Thirty minutes after oral administration of the test compounds, mice were injected with isoniazid (200 mg/kg, s.c.), and immediately thereafter, placed individually in acrylic observation cages. The onset time of clonic convulsion was measured (cut-off time: 90 minutes). The latency in the control group was about 40 minutes.
Anti-isoniazid effect of the test compounds was expressed as the dose which prolonged the onset time by 25% compared to that in the vehicle group (ED25). The ED25 value was calculated according to the Litchfield-Wilcoxon's method.

For `Cc1nc(-c2ccccc2)nc(NCC(=O)N2CC(C)CC(C)C2)c1C` (centres unmarked) [Example 65, 3,5-Dimethyl-1-(5,6-dimethyl-2-phenyl-4-pyrimidinylamino)acetylpiperidine], the half-maximal inhibitory concentration (IC50) in assay [1] worked out at 1.66 nM. In addition, the ED25 in assay [2] turned out to be 31.1 mg/kg. `Cc1nc(-c2ccc(F)cc2)nc(NCC(=O)N(C)c2ccccc2)c1C` [Example 25]: in assay [1], the 50% inhibitory concentration (IC50) worked out at 1.93 nM. Also, the ED25 in assay [2] came out at 62.1 mg/kg. For the compound `Cc1nc(-c2ccccc2)nc(NCC(=O)N2CC(C)OC(C)C2)c1C` (centres unmarked) [Example 66a, 2,6-Dimethyl-4-(5,6-dimethyl-2-phenyl-4-pyrimidinylamino)acetylmorpholine], the ED25 in assay [2] came out at 51.2 mg/kg. In turn, `Cc1nc(-c2ccccc2)nc(N2CCCC2C(=O)N(C)c2ccc(Cl)cc2)c1C` (centres unmarked) [Example 79, N-(4-chlorophenyl)-N-methyl-1-(5,6-dimethyl-2-phenyl-4-pyrimidinyl)-2-pyrrolidinecarboxamide] yielded a concentration for half-maximal inhibition (IC50) in assay [1] of 0.87 nM. Moreover, the ED25 in assay [2] was found to be 43.8 mg/kg. `C=CCN(C(=O)CNc1nc(-c2ccc(Cl)cc2)nc(C)c1C)c1ccccc1` [Example 59]: the ED25 in assay [2] came out at 14.8 mg/kg.

Regarding `CCN(C(=O)CNc1nc(-c2ccc([N+](=O)[O-])cc2)nc(C)c1C)c1ccccc1` [Example 50], the ED25 in assay [2] was found to be 27.3 mg/kg. In the case of `Cc1nc(-c2ccccc2)nc(NCC(=O)N2C[C@@H](C)O[C@@H](C)C2)c1C` [Example 66b, cis-2,6-Dimethyl-4-(5,6-dimethyl-2-phenyl-4-pyrimidinylamino)acetylmorpholine], the ED25 in assay [2] worked out at 72.4 mg/kg.

With `CCN(C(=O)CNc1nc(-c2ccc(OC)cc2)nc(C)c1C)c1ccccc1` [Example 48], the ED25 in assay [2] worked out at 7.67 mg/kg. In turn, `CCN(C(=O)CNc1nc(-c2ccccc2)nc(C)c1C)c1ccccc1` [Example 44] had a concentration for half-maximal inhibition (IC50) in assay [1] of 4.98 nM. In addition, the ED25 in assay [2] was found to be 22.4 mg/kg. Consider `CCCN(CCC)C(=O)CNc1nc(-c2ccc(F)cc2)nc(C)c1C` [Example 4], for which the IC50 in assay [1] turned out to be 4.36 nM. In assay [2], the ED25 is 51.2 mg/kg. Regarding `C=CCN(C(=O)CNc1nc(-c2ccccc2)nc(C)c1C)c1ccccc1` [Example 58], in assay [1], the half-inhibitory concentration (IC50) was determined as 1.62 nM. Further, the ED25 in assay [2] worked out at 11.8 mg/kg. Turning to `CCCN(C(=O)CNc1nc(-c2ccc(Cl)cc2)nc(C)c1C)c1ccccc1` [Example 53], the ED25 in assay [2] stood at 11.3 mg/kg. In the case of `C=CCN(C(=O)CNc1nc(-c2ccc(OC)cc2)nc(C)c1C)c1ccccc1` [Example 60], in assay [2], the ED25 came out at 2.14 mg/kg. As for `CCN(CC)C(=O)CNc1nc(-c2ccc(OC)cc2)nc(C)c1C` [Example 12], the ED25 in assay [2] stood at 31.8 mg/kg. In turn, `CCCN(CCC)C(=O)C(CO)Nc1nc(-c2ccccc2)nc(C)c1C` (centres unmarked) [Example 69, 3-hydroxy-2-(5,6-dimethyl-2-phenyl-4-pyrimidinylamino)-N,N-dipropylpropanamide] came in with an IC50 in assay [1] of 2.75 nM. In the case of `CCCN(CCC)C(=O)COc1nc(-c2ccc(C(F)(F)F)cc2)nc(C)c1C` [Example 141], the IC50 in assay [1] stood at 0.11 nM.

`CCN(C(=O)COc1nc(-c2ccc(C(F)(F)F)cc2)nc(C)c1C)c1ccccc1` [Example 155] showed an IC50 in assay [1] of 0.76 nM. On to `CCCN(CCC)C(=O)COc1nc(-c2ccccc2)nc(C)c1Br` [Example 168, 2-(5-bromo-6-methyl-2-phenyl-4-pyrimidinyloxy)-N,N-dipropylacetamide], for which, in assay [1], the IC50 was 0.99 nM. As for `CCN(CC)C(=O)CNc1nc(-c2ccc(F)cc2)nc(C)c1C` [Example 11], in assay [2], the ED25 was found to be 47.5 mg/kg.

Compound `COc1ccc(-c2nc(C)c(C)c(NCC(=O)N(C)c3ccccc3)n2)cc1` [Example 26] returned a concentration for half-maximal inhibition (IC50) in assay [1] of 0.28 nM.

In assay [1], `CCN(C(=O)COc1nc(-c2ccc([N+](=O)[O-])cc2)nc(C)c1C)c1ccccc1` [Example 164, N-ethyl-2-[5,6-dimethyl-2-(4-nitrophenyl)-4-pyrimidinyloxy]-N-phenylacetamide] had a 50% inhibitory concentration (IC50) of 0.29 nM. For `CN(Cc1ccccc1)C(=O)COc1nc(-c2ccccc2)nc2c1CCCC2` [Example 188], in assay [1], the half-inhibitory concentration (IC50) amounted to 5.24 nM. On the same count and under the same terms, the same measure for `COc1ccc(N(C)C(=O)CNc2nc(-c3ccccc3)nc(C)c2C)cc1` [Example 41]: 2.53 nM.

(Values after patent US5972946A, “Acetamide derivative, process for preparing the same, and a pharmaceutical composition containing the same” (Dainippon Pharmaceutical Co., Ltd., priority 1995, dated 1999).)
